Source: publication PMC5780263 (Xenobiotica; the fate of foreign compounds in biological …, 2017)

Columns and labels:
[1] = target: T1, CYP2A6 (Homo sapiens, UniProt P11509); conditions: previous studies, ref Shimada et al., 2016a; cited from earlier work
T1 sequence (P11509 1-494): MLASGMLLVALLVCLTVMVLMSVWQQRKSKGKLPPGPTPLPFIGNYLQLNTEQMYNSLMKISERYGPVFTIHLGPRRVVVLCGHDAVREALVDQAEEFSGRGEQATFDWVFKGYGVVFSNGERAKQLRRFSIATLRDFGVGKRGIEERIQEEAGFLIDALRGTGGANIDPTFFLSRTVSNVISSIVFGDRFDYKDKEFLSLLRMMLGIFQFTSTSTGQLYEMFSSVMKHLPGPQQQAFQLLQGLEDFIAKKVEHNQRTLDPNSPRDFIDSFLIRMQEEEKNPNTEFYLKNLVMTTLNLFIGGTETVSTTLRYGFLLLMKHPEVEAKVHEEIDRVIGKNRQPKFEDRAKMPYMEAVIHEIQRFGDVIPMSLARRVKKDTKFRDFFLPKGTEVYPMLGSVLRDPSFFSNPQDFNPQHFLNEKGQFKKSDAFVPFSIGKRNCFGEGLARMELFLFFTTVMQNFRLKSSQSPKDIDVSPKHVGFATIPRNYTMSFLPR

[2] = tested on: CYP1A1, 1A2, 1B1.1, 1B1.3, 2D6, 2E1, 2C9, and 3A4; assay: Spectral binding titration with other purified human P450 enzymes; conditions: authors' assay conditions
[3] = target: T2, CYP1A1 (Homo sapiens, UniProt P04798); type: in vitro ADME; conditions: 10 µM substrate, 37 °C, 20 min, HPLC-fluorescence
T2 sequence (P04798 1-512): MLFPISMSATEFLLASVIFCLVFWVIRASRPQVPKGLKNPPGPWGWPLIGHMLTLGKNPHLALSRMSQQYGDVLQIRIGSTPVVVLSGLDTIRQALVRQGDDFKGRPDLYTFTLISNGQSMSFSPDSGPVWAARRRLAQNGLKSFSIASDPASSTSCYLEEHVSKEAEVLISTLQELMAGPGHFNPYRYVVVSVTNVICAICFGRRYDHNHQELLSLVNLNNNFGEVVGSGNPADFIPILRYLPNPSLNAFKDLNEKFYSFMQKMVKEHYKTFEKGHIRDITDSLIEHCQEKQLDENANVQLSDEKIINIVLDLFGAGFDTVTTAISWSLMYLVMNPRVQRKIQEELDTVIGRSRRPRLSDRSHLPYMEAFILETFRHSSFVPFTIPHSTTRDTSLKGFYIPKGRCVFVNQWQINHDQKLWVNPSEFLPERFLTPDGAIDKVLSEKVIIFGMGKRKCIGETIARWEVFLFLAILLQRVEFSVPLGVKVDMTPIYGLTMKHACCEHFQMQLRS

[4] = target: T3, CYP1B1.1 (Homo sapiens, UniProt Q16678); type: in vitro ADME; conditions: 10 µM substrate, 37 °C, 20 min, HPLC-fluorescence
T3 sequence (Q16678 1-543): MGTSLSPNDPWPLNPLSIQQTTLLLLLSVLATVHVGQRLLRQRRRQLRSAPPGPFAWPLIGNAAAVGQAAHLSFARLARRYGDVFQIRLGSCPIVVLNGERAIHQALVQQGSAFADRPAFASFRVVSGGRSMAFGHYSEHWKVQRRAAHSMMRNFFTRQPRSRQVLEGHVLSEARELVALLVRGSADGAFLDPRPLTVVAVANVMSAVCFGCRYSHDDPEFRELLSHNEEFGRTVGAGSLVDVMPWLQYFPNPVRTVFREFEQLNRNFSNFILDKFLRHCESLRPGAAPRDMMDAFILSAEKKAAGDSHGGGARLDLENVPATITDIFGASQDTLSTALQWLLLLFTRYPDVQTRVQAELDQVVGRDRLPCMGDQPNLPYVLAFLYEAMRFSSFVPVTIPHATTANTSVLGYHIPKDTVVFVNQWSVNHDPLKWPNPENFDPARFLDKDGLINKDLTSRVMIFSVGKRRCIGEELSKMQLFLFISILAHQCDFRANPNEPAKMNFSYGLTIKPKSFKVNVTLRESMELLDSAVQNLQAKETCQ

[5] = target: T4, CYP2A13.1 (Homo sapiens, UniProt Q16696); type: in vitro ADME; conditions: 10 µM substrate, 37 °C, 20 min, b5 added, HPLC-fluorescence
T4 sequence (Q16696 31-494 limits assumed): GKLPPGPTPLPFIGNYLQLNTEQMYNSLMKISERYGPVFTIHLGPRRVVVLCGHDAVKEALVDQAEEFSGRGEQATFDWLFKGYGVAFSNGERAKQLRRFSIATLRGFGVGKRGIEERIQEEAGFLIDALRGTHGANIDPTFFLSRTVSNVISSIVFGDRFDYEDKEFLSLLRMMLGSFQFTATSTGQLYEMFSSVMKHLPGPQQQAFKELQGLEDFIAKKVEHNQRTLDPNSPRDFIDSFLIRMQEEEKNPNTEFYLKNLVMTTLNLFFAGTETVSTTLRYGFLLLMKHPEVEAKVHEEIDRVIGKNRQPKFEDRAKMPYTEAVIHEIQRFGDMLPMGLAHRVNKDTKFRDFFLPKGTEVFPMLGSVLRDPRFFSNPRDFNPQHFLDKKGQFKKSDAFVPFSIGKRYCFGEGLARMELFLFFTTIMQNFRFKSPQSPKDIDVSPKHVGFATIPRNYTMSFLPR

| SMILES | Type I binding spectra [1] | Spectral changes [2] | Hydroxylated products formed [3] | Hydroxylated products formed [4] | Hydroxylated products formed [5] |
| --- | --- | --- | --- | --- | --- |
| CC(=O)c1ccc2ccc3cccc4ccc1c2c34 [1-acetylpyrene] | do not show detectable Type I binding spectra |  |  |  |  |
| Clc1ccc2ccc3cccc4ccc1c2c34 [1-chloropyrene] |  | did not show any detectable spectral changes | produced 8-, 6-, and 3-hydroxylated products at significant levels | only formed the 6-hydroxy product | catalyzed hydroxylation at the 8- and 3-positions |
| O=[N+]([O-])c1ccc2ccc3cccc4ccc1c2c34 [1-nitropyrene] | do not show detectable Type I binding spectra |  |  |  |  |
| c1cc2ccc3cccc4ccc(c1)c2c34 [pyrene] | do not show detectable Type I binding spectra |  |  |  |  |
